Test results from US20110060017A1, “NOVEL 1,2,3-TRIAZOLE DERIVATIVES USEFUL AS MODULATORS OF NICOTINIC ACETYLCHOLINE RECEPTORS” (Neurosearch A/S, priority 2008, published 2011).

Assays:
[1] = target: T1, wild-type nAChR α7 receptors (Homo sapiens, UniProt P36544); test: Positive modulation of acetylcholine-induced nAChR α7 currents in Xenopus laevis oocytes (two-electrode voltage clamp); type: cell-based
T1 construct: expressed in transfected cells; host or cells: Xenopus laevis oocytes
Protocol: In this example the positive modulation of wild-type nAChR α7 receptors by Compound 4 (i.e. 4-[5-Amino-4-(2,4-dichloro-phenyl)-[1,2,3]triazol-1-ylmethyl]phenol; FIGS. 1A and 1B) was determined using nAChR α7 receptors heterologously expressed in Xenopus laevis oocytes.
The electrical current through the nAChR α7 channel was measured using conventional two-electrode voltage clamp and nAChR α7 currents were activated by applying pulses of agonist-containing solution onto the nAChR α7 expressing oocyte.
In brief, the oocytes were placed in a recording chambers and continuously super-fused with an Oocyte Ringer (OR) solution containing 90 mM NaCl, 2.5 mM KCl, 2.5 mM CaCl2, 1 mM MgCl2 and 5 mM HEPES (pH adjusted to 7.4). The oocytes were clamped at −60 mV and currents were induced by applying 20 s pulses of 100 μM acetylcholine dissolved in OR. The intervals between the acetylcholine applications were 5 minutes, during which the oocytes were washed with OR. The first three applications were control applications to insure a constant response level of 100 μM acetylcholine.
The positive modulation in the presence of Compound 4 was calculated as (test-control)/control*100% and the concentration response curve for this positive modulation was fitted to the sigmoidal logistic equation: I=Imax/(1+(EC50/[compound])^n), where Imax represents the maximal modulation of the control response, EC50 is the concentration causing a half maximal response, and n is the slope coefficient.

T1 sequence (P36544 23-502): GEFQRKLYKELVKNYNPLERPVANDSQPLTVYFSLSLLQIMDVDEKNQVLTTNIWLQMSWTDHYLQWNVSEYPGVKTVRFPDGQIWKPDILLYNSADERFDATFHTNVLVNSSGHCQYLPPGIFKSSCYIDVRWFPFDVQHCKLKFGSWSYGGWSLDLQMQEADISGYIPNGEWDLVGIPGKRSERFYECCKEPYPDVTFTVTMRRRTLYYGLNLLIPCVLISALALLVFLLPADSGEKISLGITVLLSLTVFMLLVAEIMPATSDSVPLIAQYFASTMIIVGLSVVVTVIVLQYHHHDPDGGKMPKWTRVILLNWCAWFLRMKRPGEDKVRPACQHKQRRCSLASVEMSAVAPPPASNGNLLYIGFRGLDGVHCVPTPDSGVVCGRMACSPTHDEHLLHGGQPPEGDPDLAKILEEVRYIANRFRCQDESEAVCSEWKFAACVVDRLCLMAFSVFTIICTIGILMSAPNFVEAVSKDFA

| SMILES | melting point [°C] | Imax, maximal modulation of the acetylcholine response ([1]; 100 μM acetylcholine, (test-control)/control*100%, Xenopus laevis oocytes, 0.01-31.6 μM compound) [%] | EC50 ([1]; 100 μM acetylcholine, nAChR α7 expressed in Xenopus laevis oocytes, clamped at −60 mV, 0.01-31.6 μM compound, read-out: EC50 for positive modulation of acetylcholine responses) [nM] | effect on acetylcholine-induced current amplitude ([1]; 0.01-31.6 μM compound applied 30 s before and during 100 μM acetylcholine) |
| --- | --- | --- | --- | --- |
| COc1ccc(Cn2nnc(-c3ccc(C(F)(F)F)cc3F)c2N)cc1 [Compound 7, 5-(2-Fluoro-4-trifluoromethyl-phenyl)-3-(4-methoxy-benzyl)-3H-[1,2,3]-triazol-4-ylamine] | 153.2 to 154.4 |  |  |  |
| Nc1c(-c2ccc(C(F)(F)F)cc2F)nnn1Cc1ccc(O)cc1 [Compound 8, 4-[5-Amino-4-(2-fluoro-4-trifluoromethyl-phenyl)-[1,2,3]-triazol-1-ylmethyl]-phenol] | 168.2 to 169.5 |  |  |  |
| Nc1c(-c2ccc(C(F)(F)F)cc2F)nnn1Cc1ccc(S(N)(=O)=O)cc1 [Compound 5, 4-[5-Amino-4-(2-fluoro-4-trifluoromethyl-phenyl)-[1,2,3]-triazol-1-ylmethyl]-benzenesulfonamide] | 180.1 to 181.3 |  |  |  |
| COc1ccc(-c2nnn(Cc3ccc(Cl)cc3Cl)c2N)cc1 [Compound 2, 3-(2,4-Dichloro-benzyl)-5-(4-methoxy-phenyl)-3H-[1,2,3]-triazol-4-ylamine] | 156.5 to 159 |  |  |  |

Results, then the compound that gave them:

| melting point [°C] | Imax, maximal modulation of the acetylcholine response ([1]; 100 μM acetylcholine, (test-control)/control*100%, Xenopus laevis oocytes, 0.01-31.6 μM compound) [%] | EC50 ([1]; 100 μM acetylcholine, nAChR α7 expressed in Xenopus laevis oocytes, clamped at −60 mV, 0.01-31.6 μM compound, read-out: EC50 for positive modulation of acetylcholine responses) [nM] | effect on acetylcholine-induced current amplitude ([1]; 0.01-31.6 μM compound applied 30 s before and during 100 μM acetylcholine) | SMILES |
| --- | --- | --- | --- | --- |
| 134.4 to 136.8 |  |  |  | COc1ccc(Cn2nnc(-c3ccc(Cl)cc3Cl)c2N)cc1 [Compound 1, 5-(2,4-Dichloro-phenyl)-3-(4-methoxy-benzyl)-3H-[1,2,3]triazol-4-ylamine] |
| 204 to 205.6 |  |  |  | Nc1c(-c2ccc(Cl)cc2Cl)nnn1Cc1ccc(S(N)(=O)=O)cc1 [Compound 6, 4-[5-Amino-4-(2,4-dichloro-phenyl)-[1,2,3]-triazol-1-ylmethyl]-benzenesulfonamide] |
| 172.5 to 174.1 | 277 | 1100 | robust increase | Nc1c(-c2ccc(Cl)cc2Cl)nnn1Cc1ccc(O)cc1 [Compound 4, 4-[5-Amino-4-(2,4-dichloro-phenyl)-[1,2,3]triazol-1-ylmethyl]-phenol] |
